The source of these data is US11000033B2, “Ketone or oxime compound, and herbicide” (NISSAN CHEMICAL CORPORATION, priority 2014, dated 2021).

The structures appear in SMILES notation.

What all share (type): in vivo
Data set [1] has as its system Echinochloa crus-galli var. crus-galli. The data set can be described thus: Test Example 3: herbicidal effect by foliage application, Wagner pot (symbol H). Conditions: application herbicide amount 320 g/ha. Put shortly:
(§1)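 The compound, formulated as an emulsion and diluted with water to a predetermined rate, is applied uniformly to leaves of two-week-old seedlings growing in submerged alluvial soil at 25–30 °C. Rice is included. Each plant is assessed 3 weeks later using defined criteria.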

The next data set concerns Stellaria media. As to the kind of experiment: Test Example 5: herbicidal effect by foliage application, plastic box (symbol P). Conditions: 320 g/ha, 3 weeks after application. Put shortly: (§2)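 Emulsion formulation, diluted with water to the intended rate, was applied uniformly to leaves by small sprayer. Recipients were 14-day greenhouse-grown seedlings (25° C. to 30° C.). Assessment followed at 3 weeks.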

Data set [2] deals with Echinochloa oryzacola Vasing. As to the kind of experiment: Test Example 2: herbicidal activity, application during weed generation in submerged conditions (symbol A). Conditions: Table 23; application herbicide amount 320 g/ha; grade 0-5 by criteria of Test Example 1. Summed up:
(§3)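 Treatment timing was the one- to two-leaf stage, with diluted emulsifiable compound dropped onto the paddy water (depth 4 cm) over alluvial soil. All three species grew from a mixed sowing in a 25° C. to 30° C. greenhouse. Injury was judged by eye 3 weeks on.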

Data set [3] deals with Amaranthus retroflexus. As to the kind of experiment: Test Example 5: herbicidal effect by foliage application, plastic box (symbol N). The conditions noted are these: 320 g/ha, 3 weeks after application. Summed up:
as §2

The next data set relates to wheat. The data set can be described thus: Test Example 5: effect on crop by foliage application, plastic box (symbol e). Conditions: 320 g/ha, 3 weeks after application. Summed up:
(§4)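 Plants were raised from seed in a greenhouse (25° C. to 30° C.) after sowing in a plastic box of sterilized diluvial soil.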

Another data set deals with beet. The data set can be described thus: Test Example 5: effect on crop by foliage application, plastic box (symbol f). The conditions noted are these: 320 g/ha, 3 weeks after application. Put shortly: as §4
A further data set has as its system Scirpus juncoides. As to the kind of experiment: Test Example 2: herbicidal activity, application during weed generation in submerged conditions (symbol B). The conditions noted are these: Table 23; application herbicide amount 320 g/ha; grade 0-5 by criteria of Test Example 1. Put shortly: as §3
Another data set relates to Chenopodium album. As to the kind of experiment: Test Example 5: herbicidal effect by foliage application, plastic box (symbol O). Conditions: 320 g/ha, 3 weeks after application. Summed up: as §2
The test system of data set [4] is Digitaria ciliaris. As to the kind of experiment: Test Example 4: herbicidal effect by soil treatment (symbol F). Conditions: application herbicide amount 320 g/ha. Put shortly: (§5)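 Seeds were sown in sterilized diluvial soil, covered with about 1.5 cm of soil, and the soil surface was sprayed with a water-diluted emulsion of the compound at a predetermined rate. Plants grew in a greenhouse at 25° C. to 30° C.; effects were scored visually 3 weeks after application.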

The next data set concerns Abutilon theophrasti. The data set can be described thus: Test Example 4: herbicidal effect by soil treatment (symbol M). The conditions noted are these: application herbicide amount 320 g/ha. Put shortly:
as §5

In a further data set the test system is Lolium multiflorum Lam. The data set can be described thus: Test Example 4: herbicidal effect by soil treatment (symbol K). The conditions noted are these: application herbicide amount 320 g/ha. Summed up: as §5
Data set [5] deals with Echinochloa crus-galli var. crus-galli. As to the kind of experiment: Test Example 4: herbicidal effect by soil treatment (symbol H). The conditions noted are these: application herbicide amount 320 g/ha. Summed up:
as §5

The test system of a further data set is Apera spica-venti. As to the kind of experiment: Test Example 4: herbicidal effect by soil treatment (symbol L). The conditions noted are these: application herbicide amount 320 g/ha. Put shortly: as §5
A further data set relates to rapeseed. As to the kind of experiment: Test Example 4: effect on crop by soil treatment (symbol g). Conditions: application herbicide amount 320 g/ha. Summed up:
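Plants grew in a 25° C. to 30° C. greenhouse after spot-sowing of seeds, including beet, rapeseed, wheat and rice, into sterilized diluvial soil under roughly 1.5 cm of cover soil.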

Another data set has as its system Leptochloa chinensis. The data set can be described thus: Test Example 3: herbicidal effect by foliage application, Wagner pot (symbol D). The conditions noted are these: application herbicide amount 320 g/ha. Summed up: as §1
In a further data set the test system is rice plant. As to the kind of experiment: Test Example 5: effect on crop by foliage application, plastic box (symbol b). The conditions noted are these: 320 g/ha, 3 weeks after application. Summed up: as §4
The next data set concerns Veronica persica. As to the kind of experiment: Test Example 5: herbicidal effect by foliage application, plastic box (symbol R). Conditions: 320 g/ha, 3 weeks after application. Put shortly: as §2
For data set [6], the system named is Amaranthus retroflexus. The data set can be described thus: Test Example 4: herbicidal effect by soil treatment (symbol N). The conditions noted are these: application herbicide amount 320 g/ha. Put shortly:
as §5

Data set [7] concerns Digitaria ciliaris. As to the kind of experiment: Test Example 5: herbicidal effect by foliage application, plastic box (symbol F). The conditions noted are these: 320 g/ha, 3 weeks after application. Summed up:
as §2

Another data set relates to Avena fatua. As to the kind of experiment: Test Example 5: herbicidal effect by foliage application, plastic box (symbol I). The conditions noted are these: 320 g/ha, 3 weeks after application. Summed up:
as §2

With `CON=C(C)CC1CC(O)=C(c2c(C)cc(-c3ccc(OC)cc3)cc2C)C1=O` (mixture of isomers) [6-017], in data set [1], the “herbicidal effect on H (Echinochloa crus-galli var. crus-galli), grade 0-5” value (shortened to “herbicidal effect on H”) is listed as 5 (Herbicidal ratio of 90% or more (almost completely withered)). In the data set with Stellaria media, the “P: Stellaria media, herbicidal effect grade” value (“P: Stellaria media” below) was 1 (Herbicidal ratio of 5% or higher and lower than 20%). Further, in data set [2], the “Herbicidal effect grade, A: Echinochloa oryzacola Vasing.” value was 4 (Herbicidal ratio of 70% or higher and lower than 90%). Besides, the “N: Amaranthus retroflexus, herbicidal effect grade” value (“N: Amaranthus retroflexus” below) in the data set on Amaranthus retroflexus [3] was 0 (Herbicidal ratio of 5% or lower (almost no effect)); with Amaranthus retroflexus [6] it was 1 (Herbicidal ratio of 5% or higher and lower than 20%). Further, the “e: wheat, effect on crop grade” value with wheat was 1 (Herbicidal ratio of 5% or higher and lower than 20%). For the same compound, in the data set with beet, the “f: beet, effect on crop grade” value was 0 (Herbicidal ratio of 5% or lower (almost no effect)). Besides, the “Herbicidal effect grade, B: Scirpus juncoides” value (shortened to “Herbicidal effect grade, B”) in the data set with Scirpus juncoides was 3 (Herbicidal ratio of 40% or higher and lower than 70%). Further, the “O: Chenopodium album, herbicidal effect grade” value (from here on “O: Chenopodium album”) with Chenopodium album was 4 (Herbicidal ratio of 70% or higher and lower than 90%). The “F: Digitaria ciliaris, herbicidal effect grade” value (shortened to “F: Digitaria ciliaris”) in the data set on Digitaria ciliaris [4] and in the data set on Digitaria ciliaris [7] was 5 (Herbicidal ratio of 90% or more (almost completely withered)) each time. Further, the “M: Abutilon theophrasti, herbicidal effect grade” value (“M: Abutilon theophrasti” for short) with Abutilon theophrasti is given as 0 (Herbicidal ratio of 5% or lower (almost no effect)). Moreover, the “K: Lolium multiflorum Lam., herbicidal effect grade” value in the data set on Lolium multiflorum Lam. is 4 (Herbicidal ratio of 70% or higher and lower than 90%). Moreover, the “H: Echinochloa crus-galli var. crus-galli, herbicidal effect grade” value in data set [5] was 3 (Herbicidal ratio of 40% or higher and lower than 70%). Also, in the data set on Apera spica-venti, the “L: Apera spica-venti, herbicidal effect grade” value (from here on “L: Apera spica-venti”) was 5 (Herbicidal ratio of 90% or more (almost completely withered)). Moreover, the “g: rapeseed, effect on crop grade” value in the data set with rapeseed is listed as 0 (Herbicidal ratio of 5% or lower (almost no effect)). In addition, the “herbicidal effect on D (Leptochloa chinensis), grade 0-5” value (shortened to “herbicidal effect on D”) in the data set on Leptochloa chinensis is 5 (Herbicidal ratio of 90% or more (almost completely withered)). Besides, the “b: directly sowed rice plant, effect on crop grade” value (“b: directly sowed rice plant” below) with rice plant is 5 (Herbicidal ratio of 90% or more (almost completely withered)). Also, in the data set on Veronica persica, the “R: Veronica persica, herbicidal effect grade” value (“R: Veronica persica” below) was 3 (Herbicidal ratio of 40% or higher and lower than 70%). In addition, in the data set on Avena fatua, the “I: Avena fatua, herbicidal effect grade” value is 5 (Herbicidal ratio of 90% or more (almost completely withered)).
Take `CON=C(C)CC1CC(O)=C(c2c(C)cc(-c3ccc(C)cc3)cc2C)C1=O` (mixture of isomers) [6-018]: in data set [1], the “herbicidal effect on H” value is listed as 5 (Herbicidal ratio of 90% or more (almost completely withered)). The “P: Stellaria media” value in the data set with Stellaria media was 3 (Herbicidal ratio of 40% or higher and lower than 70%). Moreover, the “Herbicidal effect grade, A: Echinochloa oryzacola Vasing.” value in data set [2] is 5 (Herbicidal ratio of 90% or more (almost completely withered)). In addition, the “N: Amaranthus retroflexus” value in the data set with Amaranthus retroflexus [3] and with Amaranthus retroflexus [6] was 0 (Herbicidal ratio of 5% or lower (almost no effect)) in each case. Moreover, the “e: wheat, effect on crop grade” value in the data set with wheat was 2 (Herbicidal ratio of 20% or higher and lower than 40%). Further, the “f: beet, effect on crop grade” value in the data set with beet was 1 (Herbicidal ratio of 5% or higher and lower than 20%). The “Herbicidal effect grade, B” value with Scirpus juncoides was 4 (Herbicidal ratio of 70% or higher and lower than 90%). For the same compound, the “O: Chenopodium album” value with Chenopodium album is 3 (Herbicidal ratio of 40% or higher and lower than 70%). The “F: Digitaria ciliaris” value in the data set on Digitaria ciliaris [4] and with Digitaria ciliaris [7] was 5 (Herbicidal ratio of 90% or more (almost completely withered)) throughout. Moreover, in the data set with Abutilon theophrasti, the “M: Abutilon theophrasti” value is on record as 0 (Herbicidal ratio of 5% or lower (almost no effect)). For the same compound, the “K: Lolium multiflorum Lam., herbicidal effect grade” value with Lolium multiflorum Lam. was 5 (Herbicidal ratio of 90% or more (almost completely withered)). Also, the “H: Echinochloa crus-galli var. crus-galli, herbicidal effect grade” value in data set [5] is 5 (Herbicidal ratio of 90% or more (almost completely withered)). The “L: Apera spica-venti” value in the data set on Apera spica-venti was 5 (Herbicidal ratio of 90% or more (almost completely withered)). In addition, the “g: rapeseed, effect on crop grade” value with rapeseed is given as 0 (Herbicidal ratio of 5% or lower (almost no effect)). The “herbicidal effect on D” value with Leptochloa chinensis is 5 (Herbicidal ratio of 90% or more (almost completely withered)). The “b: directly sowed rice plant” value in the data set on rice plant is recorded as 5 (Herbicidal ratio of 90% or more (almost completely withered)). For the same compound, in the data set with Veronica persica, the “R: Veronica persica” value is 4 (Herbicidal ratio of 70% or higher and lower than 90%). For the same compound, the “I: Avena fatua, herbicidal effect grade” value with Avena fatua is 4 (Herbicidal ratio of 70% or higher and lower than 90%).
Take `CON=C(C)CC1CC(O)=C(c2c(C)cc(C#CCO)cc2C)C1=O` (mixture of isomers) [6-025]: the “herbicidal effect on H” value in data set [1] was 5 (Herbicidal ratio of 90% or more (almost completely withered)). Moreover, the “P: Stellaria media” value in the data set with Stellaria media was 0 (Herbicidal ratio of 5% or lower (almost no effect)). Further, the “Herbicidal effect grade, A: Echinochloa oryzacola Vasing.” value in data set [2] was 2 (Herbicidal ratio of 20% or higher and lower than 40%). Also, the “N: Amaranthus retroflexus” value in the data set with Amaranthus retroflexus [3] and in the data set on Amaranthus retroflexus [6] was 0 (Herbicidal ratio of 5% or lower (almost no effect)) each time. Moreover, the “e: wheat, effect on crop grade” value with wheat was 1 (Herbicidal ratio of 5% or higher and lower than 20%). Besides, in the data set with beet, the “f: beet, effect on crop grade” value is 0 (Herbicidal ratio of 5% or lower (almost no effect)). The “Herbicidal effect grade, B” value in the data set on Scirpus juncoides was 0 (Herbicidal ratio of 5% or lower (almost no effect)). In the data set on Chenopodium album, the “O: Chenopodium album” value is on record as 0 (Herbicidal ratio of 5% or lower (almost no effect)). Besides, the “F: Digitaria ciliaris” value with Digitaria ciliaris [4] was 3 (Herbicidal ratio of 40% or higher and lower than 70%); in the data set on Digitaria ciliaris [7], 4 (Herbicidal ratio of 70% or higher and lower than 90%). In addition, the “M: Abutilon theophrasti” value with Abutilon theophrasti is on record as 0 (Herbicidal ratio of 5% or lower (almost no effect)). Besides, the “K: Lolium multiflorum Lam., herbicidal effect grade” value in the data set on Lolium multiflorum Lam. is given as 5 (Herbicidal ratio of 90% or more (almost completely withered)). For the same compound, the “H: Echinochloa crus-galli var. crus-galli, herbicidal effect grade” value in [5] is 0 (Herbicidal ratio of 5% or lower (almost no effect)). For the same compound, the “L: Apera spica-venti” value in the data set with Apera spica-venti is 4 (Herbicidal ratio of 70% or higher and lower than 90%). The “g: rapeseed, effect on crop grade” value with rapeseed is on record as 0 (Herbicidal ratio of 5% or lower (almost no effect)). Moreover, in the data set with Leptochloa chinensis, the “herbicidal effect on D” value is on record as 5 (Herbicidal ratio of 90% or more (almost completely withered)). Moreover, in the data set on rice plant, the “b: directly sowed rice plant” value was 5 (Herbicidal ratio of 90% or more (almost completely withered)). The “R: Veronica persica” value with Veronica persica was 0 (Herbicidal ratio of 5% or lower (almost no effect)). Moreover, the “I: Avena fatua, herbicidal effect grade” value in the data set on Avena fatua is on record as 5 (Herbicidal ratio of 90% or more (almost completely withered)).
